Laboratory results taken from patent US9446039B2, “Aminoheteroaryl compounds as MTH1 inhibitors” (CEMM—FORSCHUNGSZENTRUM FÜR MOLEKULARE MEDIZIN GMBH, priority 2012, dated 2016).

Tests used:
Type in all cases: binding
[1] = target: SW480 colon carcinoma cells lysate proteins (Homo sapiens, UniProt P30086); conditions: PreyGene PEBP1
[2] = target: T1, SW480 colon carcinoma cells lysate proteins (Homo sapiens, UniProt Q9Y2B0); conditions: PreyGene CNPY2; SW480 cells
T1 sequence (Q9Y2B0 21-182): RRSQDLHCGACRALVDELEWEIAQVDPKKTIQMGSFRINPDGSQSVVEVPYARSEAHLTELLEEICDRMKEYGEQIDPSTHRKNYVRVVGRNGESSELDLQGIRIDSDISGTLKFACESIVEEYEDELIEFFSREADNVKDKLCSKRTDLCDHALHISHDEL

[3] = target: T2, SW480 colon carcinoma cells lysate proteins (Homo sapiens, UniProt P22234); conditions: PreyGene PAICS
T2 sequence (P22234 1-425): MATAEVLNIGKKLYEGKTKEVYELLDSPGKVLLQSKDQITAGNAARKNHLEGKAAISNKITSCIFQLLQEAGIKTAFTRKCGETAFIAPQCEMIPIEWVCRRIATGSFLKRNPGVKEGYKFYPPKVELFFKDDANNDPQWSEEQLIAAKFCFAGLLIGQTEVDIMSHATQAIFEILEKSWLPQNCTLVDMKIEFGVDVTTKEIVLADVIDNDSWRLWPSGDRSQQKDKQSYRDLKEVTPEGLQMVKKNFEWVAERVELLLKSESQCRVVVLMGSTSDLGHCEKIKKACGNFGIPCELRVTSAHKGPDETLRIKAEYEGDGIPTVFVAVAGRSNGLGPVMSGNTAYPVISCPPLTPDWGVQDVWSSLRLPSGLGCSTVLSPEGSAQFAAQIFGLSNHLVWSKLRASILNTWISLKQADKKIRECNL

[4] = target: SW480 colon carcinoma cells lysate proteins (Homo sapiens, UniProt Q13885); conditions: PreyGene TUBB2A; SW480 cells
Sequence of SW480 colon carcinoma cells lysate proteins (Homo sapiens, UniProt Q13885) (Q13885 whole entry): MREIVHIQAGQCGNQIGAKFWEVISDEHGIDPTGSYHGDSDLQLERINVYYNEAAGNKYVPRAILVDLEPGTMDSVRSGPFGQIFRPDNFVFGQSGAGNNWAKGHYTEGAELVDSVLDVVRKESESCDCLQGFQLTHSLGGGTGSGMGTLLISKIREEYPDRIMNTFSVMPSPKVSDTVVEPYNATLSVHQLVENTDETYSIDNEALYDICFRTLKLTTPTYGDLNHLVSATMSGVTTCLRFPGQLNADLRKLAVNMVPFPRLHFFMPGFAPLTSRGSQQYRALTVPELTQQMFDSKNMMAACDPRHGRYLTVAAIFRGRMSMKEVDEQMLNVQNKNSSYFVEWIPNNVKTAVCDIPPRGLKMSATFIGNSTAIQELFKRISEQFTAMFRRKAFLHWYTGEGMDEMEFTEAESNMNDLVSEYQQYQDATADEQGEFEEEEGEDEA

[5] = target: SW480 colon carcinoma cells lysate proteins (Homo sapiens, UniProt P23526); conditions: PreyGene AHCY
Sequence of SW480 colon carcinoma cells lysate proteins (Homo sapiens, UniProt P23526) (P23526 whole entry): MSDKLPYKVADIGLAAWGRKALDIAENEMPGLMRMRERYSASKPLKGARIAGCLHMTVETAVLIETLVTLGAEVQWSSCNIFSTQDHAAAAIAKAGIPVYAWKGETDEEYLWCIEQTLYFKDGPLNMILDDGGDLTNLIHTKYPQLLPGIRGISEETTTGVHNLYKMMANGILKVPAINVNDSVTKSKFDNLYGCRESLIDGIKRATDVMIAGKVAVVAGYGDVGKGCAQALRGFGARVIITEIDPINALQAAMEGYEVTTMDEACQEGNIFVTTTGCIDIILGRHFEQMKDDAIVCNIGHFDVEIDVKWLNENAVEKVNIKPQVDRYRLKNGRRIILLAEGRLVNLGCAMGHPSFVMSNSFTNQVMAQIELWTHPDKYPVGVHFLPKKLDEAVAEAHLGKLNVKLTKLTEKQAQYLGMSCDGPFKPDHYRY

[6] = target: T3, SW480 colon carcinoma cells lysate proteins (Homo sapiens, UniProt O00764); conditions: PreyGene PDXK
T3 sequence (O00764 1-312): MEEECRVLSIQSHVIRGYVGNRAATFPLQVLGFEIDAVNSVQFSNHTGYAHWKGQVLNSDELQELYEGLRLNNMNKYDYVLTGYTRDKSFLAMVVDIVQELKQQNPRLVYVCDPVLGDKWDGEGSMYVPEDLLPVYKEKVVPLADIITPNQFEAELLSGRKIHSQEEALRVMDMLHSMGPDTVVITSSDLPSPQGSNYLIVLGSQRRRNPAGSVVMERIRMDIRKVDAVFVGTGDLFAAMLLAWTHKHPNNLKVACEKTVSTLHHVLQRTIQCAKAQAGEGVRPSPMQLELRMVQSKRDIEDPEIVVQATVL

[7] = target: SW480 colon carcinoma cells lysate proteins (Homo sapiens, UniProt O14602); conditions: PreyGene EIF1AY
Sequence of SW480 colon carcinoma cells lysate proteins (Homo sapiens, UniProt O14602) (O14602 whole entry): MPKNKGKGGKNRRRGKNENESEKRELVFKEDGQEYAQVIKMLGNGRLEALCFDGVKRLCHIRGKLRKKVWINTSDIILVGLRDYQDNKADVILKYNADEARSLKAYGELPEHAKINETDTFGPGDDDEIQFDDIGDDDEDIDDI

[8] = target: SW480 colon carcinoma cells lysate proteins (Homo sapiens, UniProt Q9BZK3); conditions: PreyGene NACAP1; SW480 cells
[9] = target: T4, SW480 colon carcinoma cells lysate proteins (Homo sapiens, UniProt P30041); conditions: PreyGene PRDX6
T4 sequence (P30041 1-224): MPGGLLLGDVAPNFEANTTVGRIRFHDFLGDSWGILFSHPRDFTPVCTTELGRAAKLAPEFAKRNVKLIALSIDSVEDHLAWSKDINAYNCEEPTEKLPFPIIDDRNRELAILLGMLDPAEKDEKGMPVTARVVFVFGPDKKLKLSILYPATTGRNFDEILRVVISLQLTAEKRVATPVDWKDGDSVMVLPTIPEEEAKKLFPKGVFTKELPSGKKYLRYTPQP

Sequence of SW480 colon carcinoma cells lysate proteins (Homo sapiens, UniProt P30086) (P30086 whole entry): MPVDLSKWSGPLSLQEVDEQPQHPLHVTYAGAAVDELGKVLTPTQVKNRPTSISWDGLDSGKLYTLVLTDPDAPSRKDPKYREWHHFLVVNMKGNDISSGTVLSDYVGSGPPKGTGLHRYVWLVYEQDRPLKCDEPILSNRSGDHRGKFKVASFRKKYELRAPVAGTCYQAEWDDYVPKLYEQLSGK

C[C@H](Oc1cc(-c2cnn(C3CCNCC3)c2)cnc1N)c1c(Cl)ccc(F)c1Cl [(5)-crizotinib]
AvgP [1]: 0.3266 | SC.Exp. 1-1 [1]: 3 | SC.Exp. 1-2 [1]: 3 | SC.Exp. 2-1 [1]: 0 | SC.Exp. 2-2 [1]: 0 | Sum (SC.Exp.) [1]: 6 | AvgP [2]: 0 | SC.Exp. 1-1 [2]: 1 | SC.Exp. 1-2 [2]: 0 | SC.Exp. 2-1 [2]: 0 | SC.Exp. 2-2 [2]: 0 | SC.Exp. Sum [2]: 1 | AvgP [3]: 0.4488 | SC.Exp. 1-1 [3]: 7 | SC.Exp. 1-2 [3]: 5 | SC.Exp. 2-1 [3]: 0 | SC.Exp. 2-2 [3]: 0 | Sum (SC.Exp.) [3]: 12 | AvgP [4]: 0 | SC.Exp. 1-1 [4]: 5 | SC.Exp. 1-2 [4]: 4 | SC.Exp. 2-1 [4]: 2 | SC.Exp. 2-2 [4]: 2 | SC.Exp. Sum [4]: 13 | AvgP [5]: 0.4716 | SC.Exp. 1-1 [5]: 4 | SC.Exp. 1-2 [5]: 4 | SC.Exp. 2-1 [5]: 0 | SC.Exp. 2-2 [5]: 0 | Sum (SC.Exp.) [5]: 8 | AvgP [6]: 0.2207 | SC.Exp. 1-1 [6]: 3 | SC.Exp. 1-2 [6]: 0 | SC.Exp. 2-1 [6]: 0 | SC.Exp. 2-2 [6]: 0 | Sum (SC.Exp.) [6]: 3 | AvgP [7]: 0.3949 | SC.Exp. 1-1 [7]: 2 | SC.Exp. 1-2 [7]: 3 | SC.Exp. 2-1 [7]: 0 | SC.Exp. 2-2 [7]: 0 | Sum (SC.Exp.) [7]: 5 | AvgP [8]: 0 | SC.Exp. 1-1 [8]: 0 | SC.Exp. 1-2 [8]: 0 | SC.Exp. 2-1 [8]: 1 | SC.Exp. 2-2 [8]: 0 | SC.Exp. Sum [8]: 1 | AvgP [9]: 0.1992 | SC.Exp. 1-1 [9]: 8 | SC.Exp. 1-2 [9]: 8 | SC.Exp. 2-1 [9]: 0 | SC.Exp. 2-2 [9]: 0 | Sum (SC.Exp.) [9]: 16
